Assay results taken from paper PMC5986738, “Thiazole Amides, A Novel Class of Algaecides against Freshwater Harmful Algae” (Scientific Reports, 2018).
≈ marks a conversion by molar mass, not a printed value.

Legend:
[1] = test system: Kirchneriella contorta; set-up: method as in PMID 16468755, PMID 16378379; conditions: cited from earlier work
[2] = set-up: method as in PMID 16468755, PMID 16378379; conditions: Synechococcus obliqnus; cited from earlier work
[3] = test system: Microcystis aeruginosa; set-up: method as in PMID 16468755, PMID 16378379; conditions: cited from earlier work
[4] = test system: Barchydanio rerio var; assay: Toxicity toward fish; assay type: in vivo; conditions: for Survival ratio in 7 days: fish
Procedure: (§1) Toxicity of this class of thiazole amides towards non-target organisms, such as higher plants and fishes, was evaluated preliminarily using compound (10) as a representative sample. Herbicidal activity of compound (10) against two terrestrial plants, Brassica campestris and Echinochloa crusgalli, and two aquatic plants, Ceratophyllum demersum L and Hydrilla verticillata, was evaluated at a concentration of 500 mg/L using a previously reported method. In addition, toxicity of compound (10) toward fish Barchydanio rerio var was also tested at the concentrations of 200 mg/L and 100 mg/L, respectively.

[5] = test system: Brassica campestris; assay: Herbicidal activity against terrestrial plant B. campestris; assay type: in vivo; conditions: n.a.: no activity
Procedure: as §1

[6] = test system: Hydrilla verticillata; assay: Herbicidal activity against aquatic plant H. verticillata; assay type: in vivo; conditions: n.a.: no activity
Procedure: as §1

[7] = test system: Ceratophyllum demersum L; assay: Herbicidal activity against aquatic plant C. demersum L; assay type: in vivo; conditions: n.a.: no activity
Procedure: as §1

[8] = test system: S. obliqnus; assay: Algicidal activity (growth inhibition, microplate, absorbance 650 nm) against S. obliqnus; assay type: cell-based; conditions: for IC50: 96 h, 96-hour IC50, mean ± SD, read-out: IC50 value S. obliqnus
Procedure: (§2) According to the method established by Schrader et al.[42], algicidal activity of alkaloid (1) and its amide analogues (7–32), as well as their hydrochloric salts (7S–27S), was evaluated against three typical […] algae, S. obliqnus, M. aeruginosa, and C. Pyrenoidosa at different concentrations. After three algae species were inoculated, the variation of algae density over 7 days were recorded continuously. […] The wavelength at 650 nm was determined as ideal incident wavelength for the measurement of algae density. Three […] algae S. obliqnus, M. aeruginosa, and C. pyrenoidosa were offered by Freshwater algae culture collection of the institute of Hydrobiology (FACHB-collection). Each culture for three species was maintained separately in continuous, steady-state growth microplates, which were placed in a growth chamber held at 28 ± 1 °C and illuminated continuously under fluorescent lights at a photon flux density of […]. Absorbance values of each wells were measured by a Packard model Spectra Count microplate photometer.
(§3) Alkaloid (1) and its analogues (7–32), as well as their hydrochloric salts (7S–27S), were dissolved separately in DMSO to provide stock solution concentrations. Initially, each stock solution was aseptically pipetted into the bottom of separate wells (20 μL per well) in a 96-well microplate and the final test concentrations for each sample were 0, 0.78, 1.56, 3.12, 6.25, 12.5, and 25 μg/mL. Wells of control samples contained only unialgal culture. The solution of CuSO4 and Diuron at the same concentration were chose as the reference sample. Each experiment was performed at least three times. Through measuring the area values under the individual growth curves, the inhibitory rate (%) for the individual tested concentration was calculated according to the following equation (1):1 Ii=(Ac−Ai)/[…]×100% • Ii: inhibitory rate of biomass growth by toxicant concentration i (%) • Ac: average area under the growth curve by control sample • Ai: average area under the growth curve by test concentration i
(§4) Mean values of 96-hour IC50 were determined for each group of plates, and standard deviation were calculated and reported as the mean ± SD.
(§5) The IC50 values of all compounds against three freshwater algae species were calculated using SPSS v19.0, and the algicidal activities of alkaloid (1) and its amide analogues (7–32), as well as the corresponding hydrochloric salts (7S–27S) are listed in Table 1 and 2, respectively.

[9] = test system: M. aeruginosa; assay: Algicidal activity (growth inhibition, microplate, absorbance 650 nm) against M. aeruginosa; assay type: cell-based; conditions: for growth inhibitory ratio: 3.13 μg/mL; for IC50: Microcystis aeruginosa, 96-hour IC50, mean ± SD, read-out: IC50 value M. aeruginosa
Procedure: as §2, §3, §4, §5
Currently, M. aeruginosa appears to be the most harmful algae existing in the freshwater bodies in the developing countries. To investigate growth inhibitory potential of this class of thiazole amides on M. aeruginosa, thiazole amide (10) and its hydrochloric acid salt (10S) were subject to further survey for the optimal inhibition time and concentration (Figs 3 and 4). […] The variation of growth inhibitory ratios of compounds (10) and (10S) against M. aeruginosa at the lowest complete inhibition concentration is illustrated in Fig. 4. As observed, for administration of thiazole amide (10), the growth inhibitory ratios after 96 and 120 hours increase gradually to 79% and 92%, respectively. Under the same experimental conditions, growth inhibitory ratios for the salt (10S) are 82% and 88%, respectively.

[10] = test system: C. pyrenoidosa; assay: Algicidal activity (growth inhibition, microplate, absorbance 650 nm) against C. pyrenoidosa; assay type: cell-based, Chlorella pyrenoidosa; conditions: Auxenochlorella pyrenoidosa; 96-hour IC50, mean ± SD; read-out: IC50 value C. pyrenoidosa
Procedure: as §2, §3, §4, §5

[11] = test system: Echinochloa crusgalli; assay: Herbicidal activity against terrestrial plant E. crusgalli; assay type: in vivo; conditions: n.a.: no activity
Procedure: as §1

[12] = test system: dinoflagellates and raphidophytes; set-up: method as in doi:10.1016/j.tetlet.2003.08.115, PMID 17988095; conditions: cited from earlier work

## C[n+]1ccc2c(c1)[nH]c1ccc(Cl)cc12 [nostocarboline]
[1]
  IC50: 29.1 µM
[2]
  IC50: 5.8 µM
[3]
  IC50: 2.1 µM

## C[C@H](N)c1nc(C(=O)Nc2ccc(Br)cc2)cs1 [compound 10]
[4]; 100 and 200 mg/L
  toxicity toward fish (in words): safe
[4]; dosage 100 mg/L
  Survival ratio in 7 days: 100%
[4]; dosage 200 mg/L
  Survival ratio in 7 days: 100%
[5]
  Herbicidal activity (500 mg/L) B. campestris: none-toxic
[6]
  Herbicidal activity (500 mg/L) H. verticillata: none-toxic
[7]
  Herbicidal activity (500 mg/L) C. demersum L.: none-toxic
[8]; S. obliqnus, from IC50 values
  algicidal activity, times higher than CuSO4 and Diuron: more than 10 times
[9]; after 96 hours
  growth inhibitory ratio: 79%
[9]; after 120 hours
  growth inhibitory ratio: 92%
[9]
  IC50: 1.51 ± 0.11 µg/mL (≈ 4.63 µM)
[10]
  IC50: 1.52 ± 0.05 µg/mL (≈ 4.66 µM)
[11]
  Herbicidal activity (500 mg/L) E. crusalli: none-toxic

## C[C@H](N)c1nc(C(=O)NCc2ccccc2)cs1 [compound 32]
other
  melting point: 64 to 67 °C
[8]
  IC50: 100.2 ± 0.34 µg/mL (≈ 383 µM)
[9]
  IC50: 9.48 ± 1.08 µg/mL (≈ 36.3 µM)
[10]
  IC50: 4.16 ± 0.88 µg/mL (≈ 15.9 µM)

## CC(=O)c1nc(C(=O)NCCc2c[nH]c3ccccc23)cs1 [bacillamide A]
[12]
  antibiotic activity (in words): potent antibiotic activity

## COc1ccccc1NC(=O)c1csc([C@H](C)N)n1 [compound 22]
other
  melting point: 82 to 84 °C
[8]
  IC50: < 1 µg/mL
[9]
  IC50: 3.12 ± 0.56 µg/mL (≈ 11.2 µM)
[10]
  IC50: 2.19 ± 0.71 µg/mL (≈ 7.9 µM)

## C[C@H](N)c1nc(C(=O)Nc2cccc(Cl)c2)cs1 [compound 14]
other
  melting point: 155 to 159 °C
[8]
  IC50: 1.52 ± 0.12 µg/mL (≈ 5.39 µM)
[9]
  IC50: 5.19 ± 0.19 µg/mL (≈ 18.4 µM)
[10]
  IC50: 4.37 ± 0.14 µg/mL (≈ 15.5 µM)

## CCCCNC(=O)c1csc([C@H](C)N)n1 [compound 30]
other
  melting point: 109 to 111 °C
[8]
  IC50: 5.23 ± 0.36 µg/mL (≈ 23 µM)
[9]
  IC50: 5.47 ± 0.41 µg/mL (≈ 24.1 µM)
[10]
  IC50: 4.65 ± 0.25 µg/mL (≈ 20.5 µM)

## CC(=O)c1ccc(NC(=O)c2csc([C@H](C)N)n2)cc1 [compound 27]
other
  melting point: 139 to 141 °C
[8]
  IC50: 4.73 ± 0.54 µg/mL (≈ 16.3 µM)
[9]
  IC50: 2.33 ± 0.32 µg/mL (≈ 8.05 µM)
[10]
  IC50: 2.84 ± 0.23 µg/mL (≈ 9.81 µM)
